# Measured values reported in patent publication US7355079B2, “Thyronamine derivatives and analogs and methods of use thereof” (The Regents of the University of California, priority 2003, dated 2008).
# pEC50: −log10 of the molar value. Entries after “also recorded” stand apart in the source; their conditions may differ.
# Key:
# mouse TAR-1 = target: T1, mouse TAR-1 (Mus musculus, UniProt Q923Y8); assay: cAMP assay, activation of mouse TAR-1; format: cell-based
# T1 construct: expressed in transfected cells
# T1 sequence (Q923Y8 whole entry): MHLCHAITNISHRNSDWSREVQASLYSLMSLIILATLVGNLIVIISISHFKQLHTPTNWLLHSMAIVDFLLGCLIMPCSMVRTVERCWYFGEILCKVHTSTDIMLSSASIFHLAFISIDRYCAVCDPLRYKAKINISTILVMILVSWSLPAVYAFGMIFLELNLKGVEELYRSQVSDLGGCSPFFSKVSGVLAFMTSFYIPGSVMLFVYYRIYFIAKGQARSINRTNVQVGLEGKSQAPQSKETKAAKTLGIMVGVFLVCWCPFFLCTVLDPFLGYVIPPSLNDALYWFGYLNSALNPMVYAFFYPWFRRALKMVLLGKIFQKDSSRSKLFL
# Method: (§1) cAMP Assay. HEK293 cells were harvested in Krebs-Ringer-HEPES buffer (KRH) and preincubated in KRH with 200 μM 3-isobutyl-methylxanthine. For drug treatments cells were incubated in KRH with 100 μM 3-isobutyl-1-methylxanthine with the test compound (or 10 μM forskolin) for 1 hour at 37° C. The cells were then boiled for 20 minutes after adding an equal volume of 0.5 mM sodium acetate buffer, centrifuged to remove cell debris, and the resulting extract was analyzed for cAMP content using competitive binding of [^3H]cAMP to a cAMP binding protein (Diagnostic Products Corp., Los Angeles, Calif.). Data were normalized according to protein content as determined using the Bradford reagent (Bio-Rad). Concentration-response curves were plotted and EC50 values calculated with Prism software (GraphPad, San Diego, Calif.).
# C57Bl/6J mice [1] = assay: core body temperature of mice injected intraperitoneally or intracerebrally; format: in vivo; settings: mouse, intraperitoneal or intracerebral injection
# Method: Eight week old male C57 Black 6J (C57Bl/6J) mice were injected intraperitoneally (i.p.) with the indicated dose of 3-iodothyronamine (T1AM) dissolved in 60% DMSO and normal saline (pH 7.4). Mice were injected intraperitoneally with a dose of T1AM at 18.75, 37.5, or 75 mg/kg body weight. Core body temperature was measured as rectal temperature every 30 minutes for the first 2 hours and then again at 3, 4, and 24 hours post injection. The core body temperature response (with standard error) to each dose reflects the response of 7-8 mice in a room maintained at 24° C.
# Core body temperature response was measured in an adult male C57Bl/6J mouse injected intraperitoneally with a dose of T1AM at 100 mg/kg T1AM. The mouse was implanted with a telemetry-emitting temperature sensing probe for more accurate measurement of core body temperature.
# Thermal response was measured in an adult male C57Bl/6J mouse to a unilateral intracerebroventricular injection of T1AM dissolved in 60% DMSO/40% normal saline at a dose of 6.6 mg/kg body weight. The mouse was instrumented with a telemetry-emitting temperature sensing probe.
# mice = assay: responses of mice within minutes of T1AM injection; format: in vivo, mouse
# Text: (§2) One of the most consistent clinical findings in individuals with severe hypothyroidism is depression. […] The underlying mechanism of this potentiation remains to be elucidated. Other physiological manifestations of depression that may also have a TH component include thermoregulatory disturbances, decreased metabolic rate, decreased cardiorespiratory fitness, inactivity, and hyperglycemia. Recently we discovered 3-iodothyronamine (T1AM), a novel endogenous metabolite of TH (Scanlan et al., Nature Medicine 10:638, 2004) that is a potent agonist of rodent and human G protein-coupled trace amine associated receptors (Lindemann et al., Genomics 85:372, 2005).
# C57Bl/6J mice [2] = assay: heart rate and blood pressure responses in mice; format: in vivo; settings: mouse, i.p. approximately 75-80 mg/kg
# Method: Heart rate and blood pressure responses were measured in an adult male C57Bl/6J mouse injected intraperitoneally with T1AM in 60% DMSO/40% normal saline at a dose of approximately 75-80 mg/kg body weight in two replicate experiments.
# Heart rate and blood pressure responses were measured in two drug naive adult male C57Bl/6J mouse following intraperitoneal injection of T1AM at a dose of approximately 75 mg/kg body weight.
# C57Bl/6J mice [3] = assay: blood glucose levels of mice injected intraperitoneally; format: in vivo, mouse; settings: 50 mg/kg
# Method: (BTC; ambient temperature −31° C.).
# [4] = tested on: ex vivo rat heart preparation; assay: ex vivo rat heart preparation, cardiac output
# Text: as §2
# [5] = target: T2, rat trace amine receptor (rTAR-1) (Rattus norvegicus, UniProt Q923Y9); assay: cAMP accumulation in HEK cells stably expressing rTAR-1; format: cell-based
# T2 construct: expressed in transfected cells
# T2 sequence (Q923Y9 whole entry): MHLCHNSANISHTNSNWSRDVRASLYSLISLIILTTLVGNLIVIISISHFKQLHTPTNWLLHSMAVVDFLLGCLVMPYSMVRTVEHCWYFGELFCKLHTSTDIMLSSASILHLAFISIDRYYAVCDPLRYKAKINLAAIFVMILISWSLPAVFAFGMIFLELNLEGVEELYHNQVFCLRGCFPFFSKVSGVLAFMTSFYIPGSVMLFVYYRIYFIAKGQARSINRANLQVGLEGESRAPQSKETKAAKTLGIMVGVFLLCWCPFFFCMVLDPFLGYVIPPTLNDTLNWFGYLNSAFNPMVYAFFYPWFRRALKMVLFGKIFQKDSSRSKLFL
# Method: To test this, the synthetic iodo-thyronamines were assayed for their ability to stimulate cAMP accumulation in human embryonic kidney (HEK) cells stably expressing rTAR-1, as well as cells transfected with an empty vector. […] To address the issue of receptor selectivity, all of the iodo-thyronamines were tested for their ability to activate the dopamine receptors and the β-adrenergic receptors.
# as §1
# i.v. serum half-life = settings: iv
smiles,measurement,setting,value
"Cl.NCCc1ccc(Oc2ccc(O)cc2)c(I)c1 [Compound T1AM, 3-iodothyronamine Hydrochloride]",pEC50,mouse TAR-1,6.95
same,core body temperature after injection (decrease from approximately 38° C.),C57Bl/6J mice [1],approximately 29 °C
same,period of decreased core body temperature,C57Bl/6J mice [1],6.5 to 8 h
same,response of mice within minutes of injection,mice,"reduction in their metabolic rate, body temperature, locomotor activity, and heart rate while blood glucose becomes elevated"
same,heart rate throughout the treatment period,C57Bl/6J mice [2],remained constant
same,blood pressure,C57Bl/6J mice [2]; Hydrochloride,"varied with the drop in body core temperature, but recovered to normal levels; also recorded: varied with the drop in body core temperature, but returned to normal levels"
same,hyperglycemia when body temperature is held constant,C57Bl/6J mice [3]; body temperature near 37° C. (BTC; ambient temperature ~31° C.),"still significant, but the effect is smaller in magnitude"
same,blood glucose levels,"C57Bl/6J mice [3]; i.p., room temperature (21° C.-22° C.), Hydrochloride",increase blood glucose levels; also recorded: significant increase in blood sugar levels
same,cardiac output,[4],rapidly reduce cardiac output
same,pEC50,[5],7.85
same,binding to the TAR receptor using a cAMP assay,[5],high affinity
same,increase in agonist potency for rTAR-1 relative to T0AM,[5]; addition of a single iodine atom to the 3-position of T0AM,~10 fold
same,half-life,i.v. serum half-life,2 to 2.5 h
